Source: patent US11021481B2, “Substituted isoindolin-1-ones and 2,3-dihydro-1h-pyrrolo[3,4-c]pyridin-1-ones as HPK1 antagonists” (Nimbus Saturn, Inc., priority 2019, dated 2021)

Molecular target: HPK1 (Homo sapiens (Human), UniProt Q92918)
Experiment: HPK1 biochemical enzyme assay (microfluidic mobility shift assay)
Conditions: 1.5 nM HPK1, ATP 1 mM final, 30 min preincubation, 60 min at RT, Caliper EZ Reader; read-out: HPK1 1000UMATP caliper IC50
Outline: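 Mobility shift readout of HPK1 activity after a 60 min RT reaction with 1 mM ATP, 1 μM substrate and 5 mM MgCl2. Enzyme/substrate mix was first exposed to compounds for 30 min, using ten-point curves topping at 3 μM final.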

Sequence of HPK1 (Q92918 whole entry): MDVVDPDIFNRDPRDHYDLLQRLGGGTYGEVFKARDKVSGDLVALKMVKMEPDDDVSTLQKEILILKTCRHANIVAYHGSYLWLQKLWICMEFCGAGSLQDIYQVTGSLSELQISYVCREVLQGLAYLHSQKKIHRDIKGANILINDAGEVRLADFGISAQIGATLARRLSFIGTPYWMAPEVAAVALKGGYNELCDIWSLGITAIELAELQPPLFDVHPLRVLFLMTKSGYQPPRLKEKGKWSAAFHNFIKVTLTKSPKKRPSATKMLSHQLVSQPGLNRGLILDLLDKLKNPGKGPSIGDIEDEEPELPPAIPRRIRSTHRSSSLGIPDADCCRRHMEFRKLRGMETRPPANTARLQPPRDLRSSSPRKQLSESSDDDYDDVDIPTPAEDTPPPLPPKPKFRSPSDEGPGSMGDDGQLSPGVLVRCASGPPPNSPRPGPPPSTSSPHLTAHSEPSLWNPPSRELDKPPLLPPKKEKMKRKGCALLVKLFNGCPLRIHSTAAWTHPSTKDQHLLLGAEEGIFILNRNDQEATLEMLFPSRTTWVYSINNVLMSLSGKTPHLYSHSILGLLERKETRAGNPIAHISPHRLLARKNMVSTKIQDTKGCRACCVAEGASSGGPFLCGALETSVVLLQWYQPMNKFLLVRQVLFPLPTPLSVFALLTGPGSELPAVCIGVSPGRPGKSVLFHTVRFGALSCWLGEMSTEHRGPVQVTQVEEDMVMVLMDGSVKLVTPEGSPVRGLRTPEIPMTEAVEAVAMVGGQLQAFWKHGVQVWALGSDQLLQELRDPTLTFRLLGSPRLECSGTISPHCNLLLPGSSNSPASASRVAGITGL

IC50, < 100 nM:
CCN(CC)Cc1nc(Nc2ccc(-c3cnc4cc(F)ccn34)c3c2C(=O)NC3)ccc1N1CCOCC1 [I-785, 7-((6-((diethylamino)-methyl)-5-morpholinopyr-idin-2-yl)amino)-4-(7-fluoroimidazo [1,2-a]pyridin-3-yl)isoindolin-1-one]
CN(C)Cc1nc(Nc2ccc(-c3cnc4cc(F)ccn34)c3c2C(=O)NC3)ccc1C1CCC1 [I-788, 7-((5-cyclobutyl-6-((dimethylamino)-methyl)pyri-din-2-yl)amino)-4-(7-fluoroimidazo [1,2-a]pyridin-3-yl)isoindolin-1-one]
CO[C@H]1CCN(Cc2nc(Nc3ccc(-c4cnc5cc(F)ccn45)c4c3C(=O)NC4)ccc2[C@@H]2CCOC2)C1 [I-790, 4-(7-fluoroimidazo [1,2-a]pyridin-3-yl)-7-((6-(((S)-3-methoxypyrrol-idin-1-yl)methyl)-5-((S)-tetrahydiofuran-3-yl)pyridin-2-yl)amino)isoin-dolin-1-one]
CCNC(=O)c1ccc(Nc2ccc(-c3cnc4cc(F)ccn34)c3c2C(=O)NC3)nc1CN(C)C [I-791, 2-((dimethylamino)-methyl)-N-ethyl-6-((7-(7-fluoroimidazo [1,2-a]pyridin-3-yl)-3-oxoisoindolin-4-yl)amino)nico-tinamide]
CN(C)Cc1nc(Nc2ccc(-c3cnc4cc(F)ccn34)c3c2C(=O)NC3)ccc1N1CCN(C)C(=O)C1 [I-795, 7-((6-((dimethylamino)-methyl)-5-(4-methyl-3-oxopiperazin-1-yl)pyridin-2-yl)amino)-4-(7-fluoroimidazo [1,2-a]pyridin-3-yl)isoindolin-1-one]
CN(C)Cc1nc(Nc2ccc(-c3cnc4cc(F)ccn34)c3c2C(=O)NC3)ccc1S(C)(=O)=O [I-796, 7-((6-((dimethylamino)-methyl)-5-(methylsulfon-yl)pyridin-2-yl)amino)-4-(7-fluoroimidazo [1,2-a]pyridin-3-yl)isoindolin-1-one]
COC[C@@H]1CN(c2ccc(Nc3cnc(-c4ccnc5c4ccn5C)c4c3C(=O)NC4)nc2CN(C)C)CCO1 [I-797, (S)-7-((6-((dimethylamino)-methyl)-5-(2-(methoxymeth-yl)morpholino)-pyridin-2-yl)amino)-4-(1-methyl-1H-pyrrolo[2,3-b]pyridin-4-yl)-2,3-dihydro-1H-pyrrolo[3,4-c)pyridin-1-one]
COC[C@H]1CN(c2ccc(Nc3cnc(-c4ccnc5c4ccn5C)c4c3C(=O)NC4)nc2CN(C)C)CCO1 [I-798, (R)-7-((6-((dimethylamino)-methyl)-5-(2-(methoxymeth-yl)morpholino)pyridin-2-yl)amino)-4-(1-methyl-1H-pyrrolo[2,3-b]pyridin-4-yl)-2,3-dihydro-1H-pyrrolo[3,4-c]pyridin-1-one]
CN(C)Cc1nc(Nc2ccc(-c3cnc4cc(F)ccn34)c3c2C(=O)NC3)cnc1[C@H]1CCOC1 [I-800, (R)-7-((6-((dimethylamino)-methyl)-5-(tetrahydrofuran-3-yl)pyrazin-2-yl)amino)-4-(7-fluoroimidazo [1,2-a]pyridin-3-yl)isoindolin-1-one]
CN(C)Cc1nc(Nc2ccc(-c3cnc4cc(F)ccn34)c3c2C(=O)NC3)ccc1[C@]1(O)CCOC1 [I-803, (R)-7-((6-((dimethylamino)-methyl)-5-(3-hydroxytetra-hydrofuran-3-yl)pyridin-2-yl)amino)-4-(7-fluoroimidazo [1,2-a]pyridin-3-yl)isoindolin-1-one]
CN(C)Cc1nc(Nc2ccc(-c3cnc4cc(F)ccn34)c3c2C(=O)NC3)ccc1[C@@]1(O)CCOC1 [I-804, (S)-7-((6-((dimethylamino)-methyl)-5-(3-hydroxytetra-hydrofuran-3-yl)pyridin-2-yl)amino)-4-(7-fluoroimidazo [1,2-a]pyridin-3-yl)isoindolin-1-one]
CN(C)Cc1nc(Nc2cnc(-c3ccnc4c3ccn4C)c3c2C(=O)NC3)ccc1O[C@H]1CCOC1 [I-806, (S)-7-((6-((dimetlnlamino)-methyl)-5-((tetrahydrofur-an-3-yl)oxy)pyridin-2-yl)amino)-4-(1-methyl-1H-pyrrolo[2,3-b]pyridin-4-yl)-2,3-dihydro-1H-pyrrolo[3,4-c]pyridin-1-one]
Cn1ccc2c(-c3ncc(Nc4ccc([C@@H]5CCOC5)c(CN5CC[C@@H](O)C5)n4)c4c3CNC4=O)ccnc21 [I-809, 7-((6-(((R)-3-hydroxypyrroli-din-1-yl)methyl)-5-((S)-THF-3-yl)pyridin-2-yl)amino)-4-(1-methyl-1H-pyrrolo[2,3-b]pyridin-4-yl)-2,3-dihydro-1H-pyrrolo[3,4-c]pyridin-1-one]
Cn1ccc2c(-c3ncc(Nc4ccc([C@H]5CCOC5)c(CN5CC[C@@H](O)C5)n4)c4c3CNC4=O)ccnc21 [I-810, 7-((6-(((R)-3-hydroxypyrroli-din-1-yl)methyl)-5-((R)-THF-3-yl)pyridin-2-yl)amino)-4-(1-methyl-1H-pyrrolo[2,3-b]pyridin-4-yl)-2,3-dihydro-1H-pyrrolo[3,4-c]pyridin-1-one]
Cn1ccc2c(-c3ncc(Nc4ccc([C@@H]5CCOC5)c(CN5CC[C@H](O)C5)n4)c4c3CNC4=O)ccnc21 [I-811, 7-((6-(((S)-3-hydroxypyrroli-din-1-yl)methyl)-5-((S)-THF-3-yl)pyridin-2-yl)amino)-4-(1-methyl-1H-pyrrolo[2,3-b]pyridin-4-yl)-2,3-dihydro-1H-pyrrolo[3,4-c]pyridin-1-one]
Cn1ccc2c(-c3ncc(Nc4ccc([C@H]5CCOC5)c(CN5CC[C@H](O)C5)n4)c4c3CNC4=O)ccnc21 [I-812, 7-((6-(((S)-3-hydroxypyrroli-din-1-yl)methyl)-5-((R)-THF-3-yl)pyridin-2-yl)amino)-4-(1-methyl-1H-pyrrolo[2,3-b]pyridin-4-yl)-2,3-dihydro-1H-pyrrolo[3,4-c]pyridin-1-one]
CN1CC(Oc2nc(Nc3ccc(-c4cnc5cc(F)ccn45)c4c3C(=O)NC4)ccc2[C@H]2CCOC2)C1 [I-815]
C[C@H](c1nc(Nc2ccc(-c3cnc4cc(F)ccn34)c3c2C(=O)NC3)ccc1[C@H]1CCOC1)N(C)C [I-817, 7-((6-((R)-1-(dimethylami-no)ethyl)-5-((R)-THF-3-yl)pyridin-2-yl)amino)-4-(7-fluoroimidazo [1,2-a]pyridin-3-yl)isoindolin-1-one]
COC1(c2ccc(Nc3ccc(-c4cnc5cc(F)ccn45)c4c3C(=O)NC4)nc2CN(C)C)CC1 [I-823, 7-((6-((dimethylamino)methyl)-5-(1-methoxycyclopropyl)pyridin-2-yl)amino)-4-(7-fluoroimidazo[1,2-a]pyridin-3-yl)isoindolin-1-one]
CN(C)Cc1nc(Nc2ccc(-c3cnc4cc(F)ccn34)c3c2C(=O)NC3)ccc1C1(C#N)CCOCC1 [I-824, 4-(2-((dimethylamino)methyl)-6-((7-(7-fluoroimidazo [1,2-a]pyridin-3-yl)-3-oxoisoindolin-4-yl)amino)pyri-din-3-yl)tetrahydro-2H-pyran-4-carbonitrilc]
O=C1NCc2c(-c3cnc4cc(F)ccn34)ccc(Nc3ccc([C@H]4CCOC4)c(CN4CCC[C@@H]4CO)n3)c21 [I-825, 4-(7-fluoroimidazo [1,2-a]pyridin-3-yl)-7-((6-(((R)-2-(hydroxymeth-yl)pyrrolidin-1-yl]methyl)-5-((R)-THF-3-yl)pyridin-2-yl)amino)isoin-dolin-1-one]
O=C1NCc2c(-c3cnc4cc(F)ccn34)ccc(Nc3ccc([C@@H]4CCOC4)c(CN4CCC[C@@H]4CO)n3)c21 [I-826, 4-(7-fluoroimidazo [1,2-a]pyridin-3-yl)-7-((6-(((R)-2-(hydroxymeth-yl)pyrrolidin-1-yl)methyl)-5-((S)-THF-3-yl)pyridin-2-yl)amino)isoin-dolin-1-one]
O=C1NCc2c(-c3cnc4cc(F)ccn34)ccc(Nc3ccc([C@H]4CCOC4)c(CN4CCC[C@H]4CO)n3)c21 [I-827, 4-(7-fluoroimidazo [1,2-a]pyridin-3-yl)-7-((6-(((S)-2-(hydroxymeth-yl)pyrrolidin-1-yl]methyl)-5-((R)-THF-3-yl)pyridin-2-yl)amino)isoin-dolin-1-one]
O=C1NCc2c(-c3cnc4cc(F)ccn34)ccc(Nc3ccc([C@@H]4CCOC4)c(CN4CCC[C@H]4CO)n3)c21 [I-828, 4-(7-fluoroimidazo [1,2-a]pyridin-3-yl)-7-((6-(((S)-2-(hydroxymeth-yl)pyrrolidin-1-yl)methyl)-5-((S)-THF-3-yl)pyridin-2-yl)amino)isoin-dolin-1-one]
Cn1ccc2c(-c3ncc(Nc4ccc([C@H]5CCOC5)c(CN)n4)c4c3CNC4=O)ccnc21 [I-829, (R)-7-((6-(aminomethyl)-5-(THF-3-yl)pyridin-2-yl)amino)-4-(1-methyl-1H-pyrrolo[2,3-b]pyridin-4-yl)-2,3-dihydro-1H-pyrrolo[3,4-c]pyridin-1-one]
COC1(c2ccc(Nc3ccc(-c4cnc5cc(F)ccn45)c4c3C(=O)NC4)nc2CN(C)C)CCOCC1 [I-830, 7-((6-((dimethylamino)-methyl)-5-(4-methoxytetra-hydro-2H-pyran-4-yl)pyridin-2-yl)amino)-4-(7-fluoroimidazo [1,2-a]pyridin-3-yl)isoindolin-1-one]
COCC1(c2ccc(Nc3ccc(-c4cnc5cc(F)ccn45)c4c3C(=O)NC4)nc2CN(C)C)CCOCC1 [I-831]
